Assay results as given in patent US20260325481A1, “THERAPY SELECTION AND TREATMENT OF NEURODEGENERATIVE DISORDERS” (Anavex Life Sciences Corp., priority 2022, published 2026).
Where two headings read alike, the source gives them in different places.

Experiments:
Set-up in all cases: species or system human
Cluster 1 (213 genes) = experiment: RNAseq whole blood transcriptomics, WGCNA Cluster 1 and pathway analysis
Protocol: (§1) In order to gain insights into ANAVEX 2-73 response pathways, during the Phase 2 study, patients' DNA and RNA sequencing were analyzed. Transcriptomic samples of 65 patients enrolled in either High Dose or Mid Dose arms were collected at baseline and at the end of treatment (Week 14). The expression of 14,150 genes was measured. No transformation was applied to the TPM values. Values associated with a with RIN s 4.0 were discarded. The actual dose of ANAVEX 2-73 (blarcamesine) that was given to each patient during the trial was assessed and integrated into the database. To characterize the gene dysregulations, a pathway database was built using an aggregation of public databases including KEGG, Panther, Allen, Brain Atlas, Gene Ontology, and Reactome.
(§2) The genes were clustered together using WGCNA, starting from their correlation of TPM expression values across samples. Seventeen clusters with size ranging from 13 to 11,190 genes were obtained through this gene clusterisation. The TPM expression values of genes in clusters were then aggregated in a single “eigengene” for each cluster. This eigengene served as a representant of the overall dysregulation of the cluster. Secondly, a cluster filtering was performed, wherein patients' arm and dose information were taken into account based on mixed effect models. For each cluster, the eigengene was used as target variable of a linear mixed effect model with 3 covariates: ActualDose, Patient, and timepoint. For each cluster, the contrast ActualDose, i.e. treated vs placebo were evaluated across all timepoints. P-values were obtained with Dunnett's test. Regardless of the cluster and pathway, pathways with less than 4 genes in a cluster were removed, to compensate for the large variability of cluster size and corresponding variability of number of pathways identified in each clusters. The ratio between cluster size and number of pathways was calculated, and top 2 clusters were retained for further Analysis. Cluster 1 contained 213 genes (n1=213) and 37 pathways, and Cluster 2 contained 962 genes (n2=962) and 317 pathways. […] Thirdly, the two retained clusters were characterized and underwent pathway analysis. The characterization and analysis were applied to all the genes of the cluster (whole cluster), and to the genes of the clusters that are known to have biological interactions (reduced cluster). In the whole cluster analysis, overrepresented pathways were identified using EnrichR package with the parameters of Fisher's adjusted p-value p<0.05 (Benjamini-Hochberg adjustment for multiple testing) and minimum pathway size 20. In the reduced cluster analysis, genes that have no interaction with any other genes of the cluster were discarded, resulting in a reduced cluster. Pathway analysis was performed on these reduced clusters. False Discovery Rate with adjustment for multiple testing (Benjamini-Hochberg procedure) was used to characterize pathways' over-representation. Known interactions between the genes of the cluster were assessed using STRING database with the parameters of Edge score >0.150, and no text mining edges. Known interactions were obtained from public databases, such as KEGG, Panther, Allen, Brain Atlas, Gene Ontology, and Reactome.
(§3) Whole Blood Transcriptomics Analysis (RNAseq) of patients with Parkinson's disease with dementia (PDD) was performed for the ANAVEX®2-73-PDD-001 study (FIG. 1) at two timepoints: Baseline and Week 14 (end of trial). All available RNA samples with […] (RNA integrity number, using 130 samples) were analyzed. The expression of 14,150 genes at these two timepoints were analyzed from both placebo and ANAVEX® 2-73 treated patients.
(§4) The above method was performed as illustrated in FIG. 2B. […] Then, the cluster's eigengene3 (one of a set of a genes matrix that tabulates the mRNA or gene expression of the genes across the sample) was used as summary of expression level of the cluster. […]

Cluster 2 (962 genes) = experiment: RNAseq whole blood transcriptomics, WGCNA Cluster 2 and pathway analysis; settings: for Number of pathways significantly overrepresented in second cluster: among its 317 pathways
Protocol: as §1, §2, §3, §4

[1] = tested on: gene clusters differentially expressed in PDD patients; experiment: RNAseq whole blood transcriptomics, gene clusters overall
Protocol: as §1
The genes were clustered together using WGCNA, starting from their correlation of TPM expression values across samples. Seventeen clusters with size ranging from 13 to 11,190 genes were obtained through this gene clusterisation. The TPM expression values of genes in clusters were then aggregated in a single “eigengene” for each cluster. This eigengene served as a representant of the overall dysregulation of the cluster. […] For each cluster, the contrast ActualDose, i.e. treated vs placebo were evaluated across all timepoints. […] The ratio between cluster size and number of pathways was calculated, and top 2 clusters were retained for further Analysis. […] Known interactions between the genes of the cluster were assessed using STRING database with the parameters of Edge score >0.150, and no text mining edges. […]
as §3, with “patients. […]” for “patients.”

## CN(C)CC1CCOC1(c1ccccc1)c1ccccc1.Cl (stereo not drawn) [ANAVEX2-73, tetrahydro-N,N-dimethyl-2,2-diphenyl-3-furanmethanamine hydrochloride]
Cluster 1 (213 genes)
  Overlap: 13/273
Cluster 1 (213 genes); among its 37 pathways
  Number of pathways significantly overrepresented in first cluster: 10 pathways
Cluster 1 (213 genes); genes of pathway in Cluster 1/genes in pathway, KEGG 2021, Alzheimer disease
  Overlap: 15/369
Cluster 1 (213 genes); genes of pathway in Cluster 1/genes in pathway, KEGG 2021, Amyotrophic lateral sclerosis
  Overlap: 14/364
Cluster 1 (213 genes); genes of pathway in Cluster 1/genes in pathway, KEGG 2021, Diabetic cardiomyopathy
  Overlap: 9/203
Cluster 1 (213 genes); genes of pathway in Cluster 1/genes in pathway, KEGG 2021, Huntington disease
  Overlap: 13/306
Cluster 1 (213 genes); genes of pathway in Cluster 1/genes in pathway, KEGG 2021, Non-alcoholic fatty liver disease
  Overlap: 8/155
Cluster 1 (213 genes); genes of pathway in Cluster 1/genes in pathway, KEGG 2021, Oxidative phosphorylation
  Overlap: 8/133
Cluster 1 (213 genes); genes of pathway in Cluster 1/genes in pathway, KEGG 2021, Parkinson disease
  Overlap: 12/249
Cluster 1 (213 genes); genes of pathway in Cluster 1/genes in pathway, KEGG 2021, Pathways of neurodegeneration
  Overlap: 15/475
Cluster 1 (213 genes); genes of pathway in Cluster 1/genes in pathway, KEGG 2021, Proteasome
  Overlap: 4/46
Cluster 2 (962 genes)
  Overlap: 45/273
Cluster 2 (962 genes); listed as ANAVEX 2-73, hydrochloride
  Number of pathways significantly overrepresented in second cluster: 15 pathways
Cluster 2 (962 genes); listed as ANAVEX® 2-73, hydrochloride
  Number of pathways significantly overrepresented in second cluster: 10 pathways
Cluster 2 (962 genes); genes of pathway in Cluster 2/genes in pathway, KEGG 2021, Alzheimer disease
  Overlap: 47/369
Cluster 2 (962 genes); genes of pathway in Cluster 2/genes in pathway, KEGG 2021, Amyotrophic lateral sclerosis
  Overlap: 46/364
Cluster 2 (962 genes); genes of pathway in Cluster 2/genes in pathway, KEGG 2021, Cardiac muscle contraction
  Overlap: 11/87
Cluster 2 (962 genes); genes of pathway in Cluster 2/genes in pathway, KEGG 2021, Coronavirus disease
  Overlap: 80/232
Cluster 2 (962 genes); genes of pathway in Cluster 2/genes in pathway, KEGG 2021, Diabetic cardiomyopathy
  Overlap: 36/203
Cluster 2 (962 genes); genes of pathway in Cluster 2/genes in pathway, KEGG 2021, Huntington disease
  Overlap: 48/306
Cluster 2 (962 genes); genes of pathway in Cluster 2/genes in pathway, KEGG 2021, Non-alcoholic fatty liver disease
  Overlap: 34/155
Cluster 2 (962 genes); genes of pathway in Cluster 2/genes in pathway, KEGG 2021, OProteasome
  Overlap: 9/46
Cluster 2 (962 genes); genes of pathway in Cluster 2/genes in pathway, KEGG 2021, Oxidative phosphorylation
  Overlap: 36/133
Cluster 2 (962 genes); genes of pathway in Cluster 2/genes in pathway, KEGG 2021, Parkinson disease
  Overlap: 46/249
Cluster 2 (962 genes); genes of pathway in Cluster 2/genes in pathway, KEGG 2021, Pathways of neurodegeneration
  Overlap: 50/475
Cluster 2 (962 genes); genes of pathway in Cluster 2/genes in pathway, KEGG 2021, Retrograde endocannabinoid signaling
  Overlap: 24/148
Cluster 2 (962 genes); genes of pathway in Cluster 2/genes in pathway, KEGG 2021, Ribosome
  Overlap: 96/158
Cluster 2 (962 genes); genes of pathway in Cluster 2/genes in pathway, KEGG 2021, Thermogenesis
  Overlap: 45/232
Cluster 2 (962 genes); genes of term in Cluster 2/genes in term, Allen Brain Atlas, Anterior olfactory nucleus
  Overlap: 27/300
Cluster 2 (962 genes); genes of term in Cluster 2/genes in term, Allen Brain Atlas, Anterior olfactory nucleus, external part
  Overlap: 34/300
Cluster 2 (962 genes); genes of term in Cluster 2/genes in term, Allen Brain Atlas, Anterior olfactory nucleus, layer 1
  Overlap: 36/300
Cluster 2 (962 genes); genes of term in Cluster 2/genes in term, Allen Brain Atlas, Main olfactory bulb
  Overlap: 31/300
Cluster 2 (962 genes); genes of term in Cluster 2/genes in term, Allen Brain Atlas, Main olfactory bulb, glomerular layer
  Overlap: 36/300
Cluster 2 (962 genes); genes of term in Cluster 2/genes in term, Allen Brain Atlas, Main olfactory bulb, inner plexiform layer
  Overlap: 28/300
Cluster 2 (962 genes); genes of term in Cluster 2/genes in term, Allen Brain Atlas, Main olfactory bulb, mitral layer
  Overlap: 28/300
Cluster 2 (962 genes); genes of term in Cluster 2/genes in term, Allen Brain Atlas, Main olfactory bulb, outer plexiform layer
  Overlap: 30/300
Cluster 2 (962 genes); genes of term in Cluster 2/genes in term, Allen Brain Atlas, OB olfactory fiber layer
  Overlap: 33/300
Cluster 2 (962 genes); genes of term in Cluster 2/genes in term, Allen Brain Atlas, Olfactory areas
  Overlap: 27/300
Cluster 2 (962 genes); genes of term in Cluster 2/genes in term, Allen Brain Atlas, Olfactory bulb, principal part
  Overlap: 32/300
Cluster 2 (962 genes); high oral dose vs placebo
  Cluster 2 eigengene expression: significantly increased
Cluster 2 (962 genes); n2=962 genes
  Number of brain areas significantly overrepresented in second cluster: 74 brain areas
Cluster 2 (962 genes); out of 74
  Number of overrepresented brain areas linked to the olfactory bulb: 11 brain areas
[1]; Dunnett's test, linear mixed-effect model
  Number of clusters with significant association between treatment and estimated marginal mean expression: 6 clusters
[1]; highest dose
  Dysregulations of Clusters 1 and 2: significantly linked to the highest dose
[1]; treated patients compared to placebo, 14 weeks
  Regulation of both identified clusters: up-regulated
